Measured values taken from ChEMBL document CHEMBL4808217, “Design, Synthesis, and Characterization of 4-Aminoquinazolines as Potent Inhibitors of the G Protein-Coupled Receptor Kinase 6 (GRK6) for the Treatment of Multiple Myeloma” (J Med Chem, 2021).
pIC50: −log10 of the molar value.

Key:
[1] = biological target: T1, G protein-coupled receptor kinase 6 (Homo sapiens, UniProt P43250); assay: Inhibition of recombinant full-length human GRK6 using casein as substrate measured after 80 mins in presence of [gamma33P]ATP by radiometric scintillation counting method
T1 sequence (P43250 whole entry): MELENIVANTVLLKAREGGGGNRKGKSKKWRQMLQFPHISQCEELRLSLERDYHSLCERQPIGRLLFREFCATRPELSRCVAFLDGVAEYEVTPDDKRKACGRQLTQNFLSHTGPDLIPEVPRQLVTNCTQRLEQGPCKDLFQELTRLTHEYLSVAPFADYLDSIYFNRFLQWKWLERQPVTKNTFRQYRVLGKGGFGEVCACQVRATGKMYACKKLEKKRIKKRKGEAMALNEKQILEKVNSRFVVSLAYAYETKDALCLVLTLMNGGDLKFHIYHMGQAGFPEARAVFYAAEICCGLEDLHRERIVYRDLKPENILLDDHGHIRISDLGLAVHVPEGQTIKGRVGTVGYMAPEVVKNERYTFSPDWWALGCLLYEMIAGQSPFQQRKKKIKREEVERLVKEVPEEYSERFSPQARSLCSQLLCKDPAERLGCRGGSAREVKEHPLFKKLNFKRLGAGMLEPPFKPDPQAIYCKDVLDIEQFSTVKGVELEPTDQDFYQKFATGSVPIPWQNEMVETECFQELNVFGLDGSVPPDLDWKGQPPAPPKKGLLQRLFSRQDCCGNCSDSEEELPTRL

[2] = biological target: T2, Aurora kinase A (Homo sapiens, UniProt O14965); assay: Inhibition of recombinant full length human Aurora A using LRRASLG as substrate incubated for 40 mins in presence of [gamma-33ATP] by radiometric scintillation counting method
T2 sequence (O14965 whole entry): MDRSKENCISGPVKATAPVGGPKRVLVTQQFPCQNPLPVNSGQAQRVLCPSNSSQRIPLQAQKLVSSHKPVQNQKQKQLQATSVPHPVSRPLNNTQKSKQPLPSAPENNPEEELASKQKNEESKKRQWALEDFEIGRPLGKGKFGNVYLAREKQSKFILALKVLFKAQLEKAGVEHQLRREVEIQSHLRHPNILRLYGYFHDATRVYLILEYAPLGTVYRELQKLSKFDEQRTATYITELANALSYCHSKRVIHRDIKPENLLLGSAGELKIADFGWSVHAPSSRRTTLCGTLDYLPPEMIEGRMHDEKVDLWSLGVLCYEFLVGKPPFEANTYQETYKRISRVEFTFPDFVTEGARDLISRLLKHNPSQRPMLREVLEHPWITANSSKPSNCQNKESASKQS

[3] = biological target: T1, G protein-coupled receptor kinase 6; assay: Binding affinity to FLAG-tagged GRK6 in human KMS11 cells incubated for […] by ITDR assay; format: cell-based, KMS-11
[4] = biological target: Insulin-like growth factor 1 receptor (Homo sapiens, UniProt P08069); assay: Inhibition of recombinant human IGF-1R (959 to end residues) using KKKSPGEYVNIEF as substrate incubated for 40 mins in presence of [gamma-33ATP] by radiometric scintillation counting method
Chain of Insulin-like growth factor 1 receptor (P08069 31-736 limits assumed): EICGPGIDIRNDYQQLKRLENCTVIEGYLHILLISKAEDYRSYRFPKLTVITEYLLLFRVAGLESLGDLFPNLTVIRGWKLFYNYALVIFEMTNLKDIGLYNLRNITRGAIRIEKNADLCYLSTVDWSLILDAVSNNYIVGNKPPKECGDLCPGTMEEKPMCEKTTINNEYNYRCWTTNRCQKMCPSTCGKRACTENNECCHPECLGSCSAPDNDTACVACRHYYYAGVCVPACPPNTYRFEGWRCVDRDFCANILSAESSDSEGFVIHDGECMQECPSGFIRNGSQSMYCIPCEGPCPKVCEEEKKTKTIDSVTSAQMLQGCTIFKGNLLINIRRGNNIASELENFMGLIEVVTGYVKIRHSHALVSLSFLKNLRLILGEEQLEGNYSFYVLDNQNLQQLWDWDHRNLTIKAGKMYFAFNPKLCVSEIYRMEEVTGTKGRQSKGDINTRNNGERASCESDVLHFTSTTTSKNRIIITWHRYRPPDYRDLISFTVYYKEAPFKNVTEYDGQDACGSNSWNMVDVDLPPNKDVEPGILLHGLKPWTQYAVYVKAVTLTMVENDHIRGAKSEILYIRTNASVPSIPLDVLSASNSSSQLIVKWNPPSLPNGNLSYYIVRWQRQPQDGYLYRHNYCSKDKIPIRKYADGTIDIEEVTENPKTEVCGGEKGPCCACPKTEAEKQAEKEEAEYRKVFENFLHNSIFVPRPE
Chain of Insulin-like growth factor 1 receptor (P08069 741-1367 limits assumed): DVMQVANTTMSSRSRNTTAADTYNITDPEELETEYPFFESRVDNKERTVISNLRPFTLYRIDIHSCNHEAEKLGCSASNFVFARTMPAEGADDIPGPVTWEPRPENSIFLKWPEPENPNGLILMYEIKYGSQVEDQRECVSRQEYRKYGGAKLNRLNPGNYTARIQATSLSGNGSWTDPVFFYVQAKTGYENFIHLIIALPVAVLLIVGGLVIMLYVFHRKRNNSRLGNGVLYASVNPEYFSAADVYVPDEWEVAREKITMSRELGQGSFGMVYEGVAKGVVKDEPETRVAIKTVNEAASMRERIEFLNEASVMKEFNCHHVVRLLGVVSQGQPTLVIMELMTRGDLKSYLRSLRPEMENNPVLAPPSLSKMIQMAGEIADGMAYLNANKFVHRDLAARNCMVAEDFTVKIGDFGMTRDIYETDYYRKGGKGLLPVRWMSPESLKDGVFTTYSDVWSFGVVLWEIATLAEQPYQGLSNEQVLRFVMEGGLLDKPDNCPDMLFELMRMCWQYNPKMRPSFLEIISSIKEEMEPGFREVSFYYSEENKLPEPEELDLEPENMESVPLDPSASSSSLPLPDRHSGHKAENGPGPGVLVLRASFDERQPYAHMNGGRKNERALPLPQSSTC

[5] = biological target: T3, Rhodopsin kinase GRK1 (Homo sapiens, UniProt Q15835); assay: Inhibition of human GRK1 using casein as substrate in presence of [gamma33P]ATP by radiometric hotspot kinase assay
T3 sequence (Q15835 whole entry): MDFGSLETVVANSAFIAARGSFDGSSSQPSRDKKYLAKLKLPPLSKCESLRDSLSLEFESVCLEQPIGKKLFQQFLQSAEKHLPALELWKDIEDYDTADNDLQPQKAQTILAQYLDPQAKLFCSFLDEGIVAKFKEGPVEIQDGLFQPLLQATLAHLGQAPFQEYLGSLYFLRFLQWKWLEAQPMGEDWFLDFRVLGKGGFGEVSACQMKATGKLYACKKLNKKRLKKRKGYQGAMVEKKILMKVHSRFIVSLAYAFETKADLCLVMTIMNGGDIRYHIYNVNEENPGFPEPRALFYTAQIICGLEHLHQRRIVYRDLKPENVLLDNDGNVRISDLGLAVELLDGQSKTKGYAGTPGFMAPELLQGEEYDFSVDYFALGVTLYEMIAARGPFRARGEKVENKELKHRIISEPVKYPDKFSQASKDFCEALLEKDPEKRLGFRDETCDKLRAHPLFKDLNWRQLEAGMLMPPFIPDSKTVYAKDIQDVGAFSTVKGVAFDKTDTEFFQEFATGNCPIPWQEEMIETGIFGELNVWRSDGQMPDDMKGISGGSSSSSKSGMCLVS

[6] = biological target: T4, Beta-adrenergic receptor kinase 1 (Homo sapiens, UniProt P25098); assay: Inhibition of human GRK2 using casein as substrate in presence of [gamma33P]ATP by radiometric hotspot kinase assay
T4 sequence (P25098 whole entry): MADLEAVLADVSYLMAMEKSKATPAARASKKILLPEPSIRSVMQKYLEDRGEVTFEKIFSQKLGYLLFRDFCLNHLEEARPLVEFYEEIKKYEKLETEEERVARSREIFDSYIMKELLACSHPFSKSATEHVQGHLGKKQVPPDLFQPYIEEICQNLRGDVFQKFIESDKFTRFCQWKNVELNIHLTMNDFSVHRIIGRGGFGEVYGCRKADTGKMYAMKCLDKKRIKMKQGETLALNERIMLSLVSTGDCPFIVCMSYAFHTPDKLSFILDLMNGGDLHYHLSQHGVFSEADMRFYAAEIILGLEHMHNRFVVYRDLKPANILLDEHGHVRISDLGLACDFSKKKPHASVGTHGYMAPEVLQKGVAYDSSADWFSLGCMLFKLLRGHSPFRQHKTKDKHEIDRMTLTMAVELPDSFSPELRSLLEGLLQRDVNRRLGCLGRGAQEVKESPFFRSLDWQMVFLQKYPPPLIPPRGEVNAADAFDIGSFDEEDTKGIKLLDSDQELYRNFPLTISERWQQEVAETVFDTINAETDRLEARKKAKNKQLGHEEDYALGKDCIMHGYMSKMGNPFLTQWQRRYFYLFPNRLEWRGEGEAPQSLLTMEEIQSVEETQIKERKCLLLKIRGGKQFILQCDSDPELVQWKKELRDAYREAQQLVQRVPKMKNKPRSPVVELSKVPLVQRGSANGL

[7] = biological target: T5, G protein-coupled receptor kinase 3 (Homo sapiens, UniProt P35626); assay: Inhibition of human GRK3 using casein as substrate in presence of [gamma33P]ATP by radiometric hotspot kinase assay
T5 sequence (P35626 whole entry): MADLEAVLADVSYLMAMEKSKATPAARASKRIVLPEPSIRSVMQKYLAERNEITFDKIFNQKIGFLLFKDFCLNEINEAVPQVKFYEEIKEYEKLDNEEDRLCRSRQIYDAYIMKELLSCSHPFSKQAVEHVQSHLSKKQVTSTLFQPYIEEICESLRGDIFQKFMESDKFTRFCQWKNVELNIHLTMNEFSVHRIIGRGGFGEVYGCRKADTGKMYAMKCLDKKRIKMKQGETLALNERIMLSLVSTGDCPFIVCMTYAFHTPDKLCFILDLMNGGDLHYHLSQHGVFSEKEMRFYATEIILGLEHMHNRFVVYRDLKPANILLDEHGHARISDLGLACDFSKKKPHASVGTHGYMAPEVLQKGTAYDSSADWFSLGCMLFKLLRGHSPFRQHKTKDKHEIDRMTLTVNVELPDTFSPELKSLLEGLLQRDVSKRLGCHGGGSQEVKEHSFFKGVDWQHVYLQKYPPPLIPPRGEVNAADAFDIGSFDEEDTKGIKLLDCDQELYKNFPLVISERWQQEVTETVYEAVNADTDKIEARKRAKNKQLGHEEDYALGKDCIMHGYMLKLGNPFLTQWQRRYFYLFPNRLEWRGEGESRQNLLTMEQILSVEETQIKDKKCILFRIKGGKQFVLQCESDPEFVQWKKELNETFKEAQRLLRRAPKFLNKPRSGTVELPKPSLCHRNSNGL

[8] = biological target: G protein-coupled receptor kinase 4 (Homo sapiens, UniProt P32298); assay: Inhibition of human GRK4 using casein as substrate in presence of [gamma33P]ATP by radiometric hotspot kinase assay
Chain of G protein-coupled receptor kinase 4 (P32298 whole entry): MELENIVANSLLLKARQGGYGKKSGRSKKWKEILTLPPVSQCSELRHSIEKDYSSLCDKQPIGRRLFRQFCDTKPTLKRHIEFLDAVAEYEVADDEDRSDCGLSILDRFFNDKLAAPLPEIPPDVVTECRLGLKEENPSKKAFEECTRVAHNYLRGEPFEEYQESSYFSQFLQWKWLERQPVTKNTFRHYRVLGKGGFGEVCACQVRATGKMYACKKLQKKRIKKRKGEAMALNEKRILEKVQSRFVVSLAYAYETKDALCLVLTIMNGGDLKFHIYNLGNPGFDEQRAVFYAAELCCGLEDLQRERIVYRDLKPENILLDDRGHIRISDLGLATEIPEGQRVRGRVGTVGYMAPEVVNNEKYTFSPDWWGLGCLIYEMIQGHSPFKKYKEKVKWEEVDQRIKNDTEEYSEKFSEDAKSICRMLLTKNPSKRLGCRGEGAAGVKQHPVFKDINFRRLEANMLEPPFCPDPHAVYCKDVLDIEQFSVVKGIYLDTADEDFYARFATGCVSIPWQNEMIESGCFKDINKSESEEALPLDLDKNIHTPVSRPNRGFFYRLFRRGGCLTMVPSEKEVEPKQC

[9] = biological target: T1, G protein-coupled receptor kinase 6; assay: Inhibition of human GRK6 using casein as substrate in presence of [gamma33P]ATP by radiometric hotspot kinase assay
[10] = biological target: T6, Rhodopsin kinase GRK7 (Homo sapiens, UniProt Q8WTQ7); assay: Inhibition of recombinant full length human GRK7 using casein as substrate incubated for 40 mins in presence of [gamma-33ATP] by scintillation counting based radiometry assay
T6 sequence (Q8WTQ7 whole entry): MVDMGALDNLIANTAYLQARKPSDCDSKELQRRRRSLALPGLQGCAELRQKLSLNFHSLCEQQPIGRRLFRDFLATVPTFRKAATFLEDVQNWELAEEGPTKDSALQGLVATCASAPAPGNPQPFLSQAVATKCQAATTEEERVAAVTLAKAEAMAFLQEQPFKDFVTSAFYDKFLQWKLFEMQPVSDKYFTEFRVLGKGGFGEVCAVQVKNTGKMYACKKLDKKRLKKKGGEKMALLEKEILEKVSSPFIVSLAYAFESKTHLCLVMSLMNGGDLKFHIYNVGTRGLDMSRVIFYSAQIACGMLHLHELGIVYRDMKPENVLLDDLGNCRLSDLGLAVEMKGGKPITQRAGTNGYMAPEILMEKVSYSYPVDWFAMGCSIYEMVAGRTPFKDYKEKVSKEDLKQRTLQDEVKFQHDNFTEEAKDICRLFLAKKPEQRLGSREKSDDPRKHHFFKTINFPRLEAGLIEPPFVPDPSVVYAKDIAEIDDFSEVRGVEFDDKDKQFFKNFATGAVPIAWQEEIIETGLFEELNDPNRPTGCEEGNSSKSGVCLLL

| SMILES | pIC50 [1] | pIC50 [2] | other results |
| --- | --- | --- | --- |
| CCc1cc(Nc2nc(N[C@@H](C)c3ccc(F)cc3)nc3cc(F)ccc23)n[nH]1 | 7.00 |  |  |
| CCc1cc(Nc2nc(N[C@@H](C)c3ccc(F)cc3)nc3cccc(F)c23)n[nH]1 | 7.39 | 7.29 |  |
| CCc1cc(Nc2nc(N[C@@H](C)c3ccc(F)cn3)nc3cccc(C)c23)n[nH]1 | 7.96 | 6.48 | pIC50 [3]: 6.21 |
| CCc1cc(Nc2nc(NCc3ccc(Cl)cc3)nc3cccc(OC)c23)n[nH]1 | 7.80 | < 5.00 | pIC50 [4]: < 5.00; pIC50 [3]: 5.70 |
| CCc1cc(Nc2nc(NCCc3ccc(F)cc3)nc3ccc(F)cc23)n[nH]1 | 6.51 |  |  |
| CCc1cc(Nc2nc(NCCc3ccc(F)cc3)nc3ccccc23)n[nH]1 | 6.72 | 7.39 |  |
| CCc1cc(Nc2nc(N[C@@H](C)c3ccc(F)cc3)nc3ccc(F)cc23)n[nH]1 | 6.80 |  |  |
| CCc1cc(Nc2nc(N[C@@H](C)c3cccc(F)c3)nc3ccccc23)n[nH]1 | 6.47 |  |  |
| CCc1cc(Nc2nc(NCCc3ccc(F)cc3)nc3cc(F)ccc23)n[nH]1 | 6.74 |  |  |
| CCc1cc(Nc2nc(N[C@H](C)c3ccc(F)cc3)nc3ccccc23)n[nH]1 | 5.85 |  |  |
| CCOc1ccc(Nc2nc(N[C@@H](C)c3ccc(F)cn3)nc3cccc(F)c23)cn1 | < 5.00 |  |  |
| CCc1cc(Nc2nc(N[C@@H](C)c3ccc(Cl)cn3)nc3cccc(OC)c23)n[nH]1 | 8.46 | 4.66 |  |
| Fc1cccc2nc(NCCc3ccccc3)nc(Nc3ccon3)c12 | < 5.00 |  |  |
| CCc1cc(Nc2nc(NC3(c4ccc(Cl)cc4)CC3)nc3ccccc23)n[nH]1 | 6.55 |  |  |
| CCc1cc(Nc2nc(N[C@@H](C)c3ccc(OC)cc3)nc3ccccc23)n[nH]1 | 6.54 |  |  |
| CCc1cc(Nc2nc(N[C@@H](C)c3ncc(F)cn3)nc3cccc(F)c23)n[nH]1 | 6.64 | 7.10 |  |
| CCc1cc(Nc2nc(N[C@@H](C)C3CCCCC3)nc3ccccc23)n[nH]1 | 6.02 |  |  |
| CCc1cc(Nc2nc(NCc3ccc(Cl)cc3OC)nc3cccc(C)c23)n[nH]1 | 8.22 | 5.92 | pIC50 [3]: 6.77 |
| CCn1cnc(Nc2nc(N[C@@H](C)c3ccc(F)cn3)nc3cccc(F)c23)c1 | 6.55 |  |  |

| SMILES | pIC50 [1] | pIC50 [2] | other results |
| --- | --- | --- | --- |
| CCc1cc(Nc2nc(NCCc3ccccc3)nc3cccc(OC)c23)n[nH]1 | 8.00 | < 5.00 | pIC50 [4]: < 5.00 |
| CCc1cc(Nc2nc(N[C@@H](C)c3ccc(F)cc3)nc3cc(Cl)ccc23)n[nH]1 | 6.36 |  |  |
| CCc1cc(Nc2nc(NCc3ccc(Cl)cc3)nc3cccc(C)c23)n[nH]1 | 7.57 | 5.92 | pIC50 [4]: < 5.00 |
| CCc1cc(Nc2nc(NCCc3ccc(F)cc3)nc3ccc(OC)cc23)n[nH]1 | 6.34 |  |  |
| CCc1cc(Nc2nc(N[C@@H](C)c3ccc(C#N)cn3)nc3cccc(F)c23)n[nH]1 | 7.04 | 6.66 |  |
| CCc1cc(Nc2nc(N[C@@H](C)c3ccc(F)cn3)nc3cccc(F)c23)n[nH]1 | 7.54 | 7.60 |  |
| CCc1cc(Nc2nc(NCc3ccc(F)cn3)nc3cccc(OC)c23)n[nH]1 | 7.74 | 5.34 | pIC50 [4]: < 5.00; pIC50 [5]: 6.35; pIC50 [6]: < 5.00; pIC50 [7]: < 5.00; pIC50 [8]: 6.72; pIC50 [9]: 7.48; pIC50 [10]: 7.44; pIC50 [3]: 5.00 |
| CCc1cc(Nc2nc(NCCc3ccccc3)nc3cccc(F)c23)n[nH]1 | 7.70 |  |  |
| CCc1cc(Nc2nc(N[C@@H](C)c3ccc(Cl)cc3)nc3ccccc23)n[nH]1 | 7.15 |  |  |
| CCc1cc(Nc2nc(NCc3ccc(F)cc3)nc3ccccc23)n[nH]1 | 6.60 |  |  |
| CCc1cc(Nc2nc(NCCN3CCOCC3)nc3cccc(F)c23)n[nH]1 | 5.85 |  |  |
| CCc1cc(Nc2nc(N[C@@H](C)c3ccc(C)cc3)nc3cccc(F)c23)n[nH]1 | 7.57 | 7.12 |  |
| CCc1cc(Nc2nc(NCc3ccc(Cl)cc3OC)nc3ccccc23)n[nH]1 | 7.40 |  |  |
| CCc1cc(Nc2nc(NCCc3ccc(F)cc3)nc3cccc(F)c23)n[nH]1 | 6.96 | 6.74 |  |
| CCc1cc(Nc2nc(N[C@@H](C)c3ccc(F)cn3)nc3cccc(OC)c23)n[nH]1 | 8.14 | 6.07 | pIC50 [5]: 6.72; pIC50 [6]: < 5.00; pIC50 [7]: < 5.00; pIC50 [8]: 7.01; pIC50 [9]: 7.74; pIC50 [10]: 7.82; pIC50 [3]: 5.70 |
| CCc1cc(Nc2nc(N[C@@H](C)c3ccc(F)cc3)nc3ccc(OC)cc23)n[nH]1 | 6.85 |  |  |
| Fc1cccc2nc(NCCc3ccccc3)nc(Nc3cc[nH]n3)c12 | 5.60 |  |  |
| CCc1cc(Nc2nc(N[C@@H](C)c3ccc(F)cc3)nc3ccccc23)n[nH]1 | 6.92 | 7.96 |  |
| CCc1cc(Nc2nc(NCCc3ccc(F)cc3)nc3cc(Cl)ccc23)n[nH]1 | 5.96 |  |  |
